Reference: patent US20240166660A1, “KRAS G12C INHIBITORS” (BeiGene Switzerland GmbH, priority 2021, published 2024)

Molecular target: KRAS (aa 1-169) G12C, C51S, C80L, C118S (Homo sapiens (Human), UniProt P01116, C118S/C51S/C80L/G12C)
Assay: Biochemical functional assay: SOS1-mediated nucleotide exchange of GDP-loaded KRAS G12C, binding to GST-cRaf RBD, FRET readout
Details: 3 hrs pre-incubation with compound at 24° C., SOS1, GTPyS
Protocol: Biochemical Functional Assay
The KRAS (aa 1-169) G12C, C51S, C80L, C118S with a His-tag was expressed, purified and loaded with GDP in house. All protein and substrate solutions were prepared in assay buffer containing 25 mM HEPES pH7.5, 10 mM MgCl2, and 0.01% Triton X-100. Purified GDP-loaded KRAS (aa 1-169) G12C, C51S, C80L, C118S protein was pre-incubated with a serially diluted compound at 24° C. for 3 hrs. Purified SOS1 (aa 564-1049) protein, GTPyS (Sigma) and GST-cRaf RBD (aa 1-149) were then added to each well and incubated at 24° C. for additional 3 hrs. […] Following the incubation, Mab Anti-6HIS-T cryptate (Cisbio) and Mab Anti GST-XL665 (Cisbio) were added and further incubated at 24° C. for 3 hrs. The binding interaction between active GTPyS KRAS G12C and GST-cRaf RBD brings the Tb and XL665 into close proximity enabling an increased FRET signal (Ex337 nm, Em665 nm/620 nm). The inhibition percentage of nucleotide exchange reaction in presence of increasing concentrations of compounds was calculated based on the ratio of fluorescence at 665 nm to that at 620 nm detected on a BMG PHERAstar FSX instrument. The IC50 value of each compound was calculated from fitting the data to the four-parameter logistic model by Dotmatics.

[1] = inhibition of nucleotide exchange

Sequence of KRAS (aa 1-169) G12C, C51S, C80L, C118S (P01116 other isoform, or with tags, fused parts or gaps G12C/C51S/C80L/C118S): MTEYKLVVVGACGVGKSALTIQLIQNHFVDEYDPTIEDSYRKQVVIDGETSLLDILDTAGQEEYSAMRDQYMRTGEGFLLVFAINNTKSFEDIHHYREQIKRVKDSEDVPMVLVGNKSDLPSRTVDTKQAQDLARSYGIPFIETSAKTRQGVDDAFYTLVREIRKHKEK

C=C(F)C(=O)N1CCN(c2nc(OC[C@@H]3C[C@@H](F)CN3C)nc3cc(-c4cccc5cccc(Cl)c45)c4c(c23)OCCC4)C[C@@H]1CC#N [Compound B53, 2-((S)-4-(5-(8-chloronaphthalen-1-yl)-8-(((2S,4R)-4-fluoro-1-methylpyrrolidin-2-yl)methoxy)-3,4-dihydro-2H-pyrano[2,3-f]quinazolin-10-yl)-1-(2-fluoroacryloyl)piperazin-2-yl)acetonitrile]
IC50 [1]: 0.028 µM

C=C(F)C(=O)N1CCN(c2nc(N3CC(CC#N)(N(C)C)C3)nc3cc(-c4cccc5cccc(Cl)c45)c4c(c23)OCCC4)C[C@@H]1CC#N [Compound B90, (S)-2-(1-(5-(8-chloronaphthalen-1-yl)-10-(3-(cyanomethyl)-4-(2-fluoroacryloyl)piperazin-1-yl)-3,4-dihydro-2H-pyrano[2,3-f]quinazolin-8-yl)-3-(dimethylamino)azetidin-3-yl)acetonitrile]
IC50 [1]: 0.037 µM

C=CC(=O)N1CCN(c2nc(N(C)CCN(C)C)nc3cc(-c4cccc5cccc(Cl)c45)c4c(c23)OCCC4)CC1 [Compound B23, 1-(4-(5-(8-chloronaphthalen-1-yl)-8-((2-(dimethylamino)ethyl)(methyl)amino)-3,4-dihydro-2H-pyrano[2,3-f]quinazolin-10-yl)piperazin-1-yl)prop-2-en-1-one]
IC50 [1]: 0.202 µM

C=CC(=O)N1CCN(c2ncnc3cc(-c4c(Cl)c(F)cc5[nH]ncc45)c4c(c23)OCCC4)C[C@@H]1CC#N [Compound A17, 2-((2S)-1-acryloyl-4-(5-(5-chloro-6-fluoro-1H-indazol-4-yl)-3,4-dihydro-2H-pyrano[2,3-f]quinazolin-10-yl)piperazin-2-yl)acetonitrile]
IC50 [1]: 0.0317 µM

C=CC(=O)N1CCN(c2ncnc3cc(-c4cccc5ccccc45)c4c(c23)OCC=C4)C[C@@H]1CC#N [Compound A8, (S)-2-(1-acryloyl-4-(5-(naphthalen-1-yl)-2H-pyrano[2,3-f]quinazolin-10-yl)piperazin-2-yl)acetonitrile]
IC50 [1]: 0.0821 µM

C=CC(=O)N1CCN(c2ncnc3cc(-c4c(C)c(C)cc5[nH]ncc45)c4c(c23)OCCC4)C[C@@H]1CC#N [Compound A25, 2-((2S)-1-acryloyl-4-(5-(5,6-dimethyl-1H-indazol-4-yl)-3,4-dihydro-2H-pyrano[2,3-f]quinazolin-10-yl)piperazin-2-yl)acetonitrile]
IC50 [1]: 0.0155 µM

C=CC(=O)N1CCN(c2nc(N3CCN(C)CC3)nc3cc(-c4cccc5cccc(Cl)c45)c4c(c23)OCCC4)CC1 [Compound B24, 1-(4-(5-(8-chloronaphthalen-1-yl)-8-(4-methylpiperazin-1-yl)-3,4-dihydro-2H-pyrano[2,3-f]quinazolin-10-yl)piperazin-1-yl)prop-2-en-1-one]
IC50 (bound in uM): > 10 µM

C=C(F)C(=O)N1CCN(c2nc(OC[C@@H]3CCCN3C)nc3cc(-c4cccc5cccc(F)c45)c4c(c23)OCCC4)C[C@@H]1CC#N [Compound B37, 2-((S)-1-(2-fluoroacryloyl)-4-(5-(8-fluoronaphthalen-1-yl)-8-(((S)-1-methylpyrrolidin-2-yl)methoxy)-3,4-dihydro-2H-pyrano[2,3-f]quinazolin-10-yl)piperazin-2-yl)acetonitrile]
IC50 [1]: 0.008 µM

C=CC(=O)N1CCN(c2ncnc3cc(-c4ccc(O)c(F)c4)c4c(c23)OCCC4)C[C@@H]1CC#N [Compound A28, (S)-2-(1-acryloyl-4-(5-(3-fluoro-4-hydroxyphenyl)-3,4-dihydro-2H-pyrano[2,3-f]quinazolin-10-yl)piperazin-2-yl)acetonitrile]
IC50 (bound in uM): > 10 µM

C=CC(=O)N1CCN(c2ncnc3cc(-c4c(Cl)c(Cl)cc5[nH]ncc45)c4c(c23)OCCC4)C[C@@H]1CC#N [Compound A29, 2-((2S)-1-acryloyl-4-(5-(5,6-dichloro-1H-indazol-4-yl)-3,4-dihydro-2H-pyrano[2,3-f]quinazolin-10-yl)piperazin-2-yl)acetonitrile]
IC50 [1]: 0.0093 µM

C=CC(=O)N1CCN(c2nc(N3CC(N(C)C)C3)nc3cc(-c4cccc(Cl)c4)c4c(c23)OCCC4)CC1 [Compound B17, 1-(4-(5-(3-chlorophenyl)-8-(3-(dimethylamino)azetidin-1-yl)-3,4-dihydro-2H-pyrano[2,3-f]quinazolin-10-yl)piperazin-1-yl)prop-2-en-1-one]
IC50 (bound in uM): > 10 µM

C=C(F)C(=O)N1CCN(c2nc(N3CC(N(C)C)C3)nc3cc(-c4c(Cl)c(C)cc5[nH]ncc45)c4ccoc4c23)C[C@@H]1CC#N [Compound B79, 2-((2S)-4-(4-(5-chloro-6-methyl-1H-indazol-4-yl)-7-(3-(dimethylamino)azetidin-1-yl)furo[2,3-f]quinazolin-9-yl)-1-(2-fluoroacryloyl)piperazin-2-yl)acetonitrile]
IC50 [1]: 0.059 µM

C=CC(=O)N1CCN(c2nc(N3CC(N(C)C)C3)nc3cc(-c4ccccc4C(F)(F)F)c4c(c23)OCCC4)CC1 [Compound B22, 1-(4-(8-(3-(dimethylamino)azetidin-1-yl)-5-(2-(trifluoromethyl)phenyl)-3,4-dihydro-2H-pyrano[2,3-f]quinazolin-10-yl)piperazin-1-yl)prop-2-en-1-one]
IC50 [1]: 0.568 µM

C=CC(=O)N1CCN(c2nc(OC[C@@H]3CCCN3C)nc3cc(-c4c(Cl)c(C)cc5[nH]ncc45)c4c(c23)OCC4)CC1 [Compound B28, 1-(4-(4-(5-chloro-6-methyl-1H-indazol-4-yl)-7-(((S)-1-methylpyrrolidin-2-yl)methoxy)-2,3-dihydrofuro[2,3-f]quinazolin-9-yl)piperazin-1-yl)prop-2-en-1-one]
IC50 [1]: 0.113 µM

C=CC(=O)N1CCN(c2nc(OC[C@@H]3C[C@@H](F)CN3C)nc3cc(-c4cccc(F)c4F)c4c(c23)OCCC4)CC1 [Compound B14, 1-(4-(5-(2,3-difluorophenyl)-8-(((2S,4R)-4-fluoro-1-methylpyrrolidin-2-yl)methoxy)-3,4-dihydro-2H-pyrano[2,3-f]quinazolin-10-yl)piperazin-1-yl)prop-2-en-1-one]
IC50 (bound in uM): > 10 µM

C=C(F)C(=O)N1CCN(c2nc(OC[C@@H]3CCN(C)C3)nc3cc(-c4cccc5cccc(Cl)c45)c4c(c23)OCCC4)C[C@@H]1CC#N [Compound B75, 2-((S)-4-(5-(8-chloronaphthalen-1-yl)-8-(((R)-1-methylpyrrolidin-3-yl)methoxy)-3,4-dihydro-2H-pyrano[2,3-f]quinazolin-10-yl)-1-(2-fluoroacryloyl)piperazin-2-yl)acetonitrile]
IC50 [1]: 0.044 µM

C=CC(=O)N1CCN(c2ncnc3cc(-c4cnc(N)cc4C(F)(F)F)c4c(c23)OCCC4)C[C@@H]1CC#N [Compound A22, (S)-2-(1-acryloyl-4-(5-(6-amino-4-(trifluoromethyl)pyridin-3-yl)-3,4-dihydro-2H-pyrano[2,3-f]quinazolin-10-yl)piperazin-2-yl)acetonitrile]
IC50 [1]: 0.256 µM

C=CC(=O)N1CCN(c2nc(OC[C@@H]3CCCN3C)nc3cc(-c4c(O)cccc4F)c4ccoc4c23)CC1 [Compound B46, 1-(4-(4-(2-fluoro-6-hydroxyphenyl)-7-(((S)-1-methylpyrrolidin-2-yl)methoxy)furo[2,3-f]quinazolin-9-yl)piperazin-1-yl)prop-2-en-1-one]
IC50 [1]: 0.621 µM

C=CC(=O)N1CCN(c2ncnc3cc(-c4c(O)cccc4F)c4c(c23)OC(C)(C)CC4)C[C@@H]1CC#N [Compound A3, 2-((2S)-1-acryloyl-4-(5-(2-fluoro-6-hydroxyphenyl)-2,2-dimethyl-3,4-dihydro-2H-pyrano[2,3-f]quinazolin-10-yl)piperazin-2-yl)acetonitrile]
IC50 [1]: 0.559 µM
